In data set [1] the test system is Gram-positive and Gram-negative bacteria, including Pseudomonas aeruginosa. As to conditions: conventional cephalosporin series antibiotics; cited from earlier work.
Data set [2] relates to Staphylococcus aereus 209PJC-1. The data set is described as follows: Minimum Inhibitory Concentration by Agar Plate Dilution Method. It counts as cell-based. As to conditions: 209PJC1.
For data set [3], the system named is Staphylococcus aereus Smith S-424. Described as above. It counts as cell-based. As to conditions: SMITHS424.
Data set [4] concerns Bacillus anthracis No. 119. The data set is described as follows: microbe, parasite or virus in culture. It is filed as cell-based. As to conditions: NO.119, read-out: Minimum Inhibitory Concentration.
The test system of data set [5] is Escherichia coli GN 206 (CSase). Put plainly: Minimum Inhibitory Concentration by Agar Plate Dilution Method. It is filed as cell-based. As to conditions: GN206.
Data set [6] has as its system Citrobacter freundii GN 346 (CSase). The description is as above. It is filed as cell-based. As to conditions: GN346.
Data set [7] concerns Klebsiella pneumoniae GN 69 (PCase). The description is as above. It is filed as cell-based. As to conditions: GN69.
Data set [8] relates to Proteus morganii 1510 (CSase). The description is as above. As to conditions: Morganella morganii. It counts as cell-based.
Data set [9] has as its system Proteus rettgeri GN 624 (CSase). The data set is described as above. It counts as cell-based. As to conditions: Providencia rettgeri, GN624.
A further data set relates to Proteus vulgaris OX 19. The data set is described as above. It counts as cell-based. As to conditions: OX19.
The test system of data set [10] is Serratia marcescens No. 1. The description is as above. It counts as cell-based.
Data set [11] deals with Serratia species GN 629 (CSase). The data set is described as above. It counts as cell-based. As to conditions: GN629.
Data set [12] has as its system Pseudomonas aeruginosa IAM-1007. The data set is described as above. It is filed as cell-based. As to conditions: IAM1007.
Data set [13] relates to Pseudomonas aeruginosa M-0025. The data set is described as above. It counts as cell-based. As to conditions: M0025.
Data set [14] concerns Pseudomonas cepacia M-0527. Described as above. It is filed as cell-based. As to conditions: Burkholderia cepacia, M0527.
Data set [15] concerns Pseudomonas cepacia TMS 199, KM 425. Described as above. It is filed as cell-based. As to conditions: Burkholderia cepacia.
For a further data set, the system named is Maltophilia 604. The description is as above. It counts as cell-based.
A further data set concerns mice. Put plainly: Acute toxicity, intraperitoneal administration to mice. It counts as in vivo. As to conditions: six mice, intraperitoneally 1,000 mg/kg. The procedure:
The toxicity of the compounds according to this invention is very low. None of the six mice administered intraperitoneally 1,000 mg/kg of the compound of Example 2 died. Therefore, the compounds of this invention have very low toxicity. In addition, they have a wide antibacterial spectrum and are very effective in treating infectious diseases, as compared with the conventional cephalosporin series antibiotics such as cephalotin, cefazolin, cephalexin and cephaloridine.

Values after ≈ are worked out from the molar mass of the structure shown. Counter-ions that a name gives are not always drawn.

`Cc1nnc(SCC2=C(C(=O)O)N3C(=O)[C@@H](NC(=O)Cn4cnnn4)[C@H]3SC2)s1` [cefazolin]: the “control of Gram-negative bacilli typified by Pseudomonas aeruginosa” value (from here on “control”) in data set [1] is given as “cannot be controlled”.
Consider `COc1ccc(-c2ccc(C(=O)N[C@@H](C(=O)NC3C(=O)N4C(C(=O)O)=C(CSc5nnnn5C)CSC34)c3ccc(O)cc3)c(=O)[nH]2)cc1OC` (single isomer, unassigned) [Example 2, sodium salt of 7-{D(-)-α-[6-(3,4-dimethoxyphenyl)-1,2-dihydro-2-oxopyridine-3-carbonylamino]-p-hydroxyphenylacetamido}-3-(1-methyl-1,2,3,4-tetrazol-5-ylthiomethyl)-3-cephem-4-carboxylic acid], for which the MIC in [2] stood at 0.78 µg/mL; in data set [3] it was 0.78 µg/mL; in [4] it was 1.56 µg/mL; in data set [5], 3.13 µg/mL; in data set [6] it was 3.13 µg/mL; in data set [7], 12.5 µg/mL. Besides, the MIC in data set [8] was 25 µg/mL; in data set [9], 12.5 µg/mL; against Proteus vulgaris OX 19, 0.78 µg/mL; in [10], 3.13 µg/mL; in data set [11], 12.5 µg/mL; in [12] it was 6.25 µg/mL. The MIC was 3.13 µg/mL in data set [13], 6.25 µg/mL in [14], 6.25 µg/mL in [15] and 6.25 µg/mL in the data set with Maltophilia 604. Moreover, the mice that died result with mice is “None”.
Consider `CCN1CCN(C(=O)N[C@@H](C(=O)N[C@@H]2C(=O)N3[C@@H]2SC(C)(C)[C@@H]3C(=O)O)c2ccccc2)C(=O)C1=O` [Example T-1220, piperacillin, reference compound], for which the MIC was 0.78 µg/mL (≈ 1.51 µM) in data set [2]; 1.56 µg/mL (≈ 3.01 µM) in data set [3]; 0.78 µg/mL (≈ 1.51 µM) in [4]; 25 µg/mL (≈ 48.3 µM) in data set [5]; 100 µg/mL (≈ 193 µM) in data set [6]; 50 µg/mL (≈ 96.6 µM) in data set [7]. In addition, the MIC in data set [8] is 50 µg/mL (≈ 96.6 µM); in data set [9] it was 0.78 µg/mL (≈ 1.51 µM); with Proteus vulgaris OX 19, 1.56 µg/mL (≈ 3.01 µM); in [10] it was 1.56 µg/mL (≈ 3.01 µM); in data set [11], 25 µg/mL (≈ 48.3 µM); in [12], 12.5 µg/mL (≈ 24.2 µM). Besides, the MIC is 6.25 µg/mL (≈ 12.1 µM) in [13], 1.56 µg/mL (≈ 3.01 µM) in data set [14] and 200 µg/mL (≈ 386 µM) in the data set with Maltophilia 604.
Take `CC(=O)OCC1=C(C(=O)O)N2C(=O)[C@@H](NC(=O)Cc3cccs3)[C@H]2SC1` [cephalotin]: in [1], the “control” value was “cannot be controlled”.
As to `CC1=C(C(=O)O)N2C(=O)[C@@H](NC(=O)[C@H](N)c3ccccc3)[C@H]2SC1` [cephalexin], in data set [1], the “control” value is “cannot be controlled”.
As to `COc1ccc(COc2ccc(-c3ccc(C(=O)N[C@@H](C(=O)NC4C(=O)N5C(C(=O)O)=C(CSc6nnnn6C)CSC45)c4ccc(O)cc4)c(=O)[nH]3)cc2OC)cc1OC` (single isomer, unassigned) [Example 5, sodium salt of 7-{D(-)-α-[6-[4-(3,4-dimethoxybenzyloxy)-3-methoxyphenyl]-1,2-dihydro-2-oxopyridine-3-carbonylamino]-p-hydroxyphenylacetamido}-3-(1-methyl-1,2,3,4-tetrazol-5-ylthiomethyl)-3-cephem-4-carboxylic acid], the MIC in data set [2] is 0.78 µg/mL; in data set [3], 0.78 µg/mL; in data set [4] it was 0.2 µg/mL; in [5], 0.2 µg/mL; in data set [6], 0.78 µg/mL; in data set [7] it was 6.25 µg/mL. Moreover, the MIC in data set [8] was found to be 12.5 µg/mL; in data set [9], 3.13 µg/mL; in the data set on Proteus vulgaris OX 19 it was 0.39 µg/mL; in [10] it was 3.13 µg/mL; in [11] it was 12.5 µg/mL; in data set [12], 12.5 µg/mL. Further, the MIC was 3.13 µg/mL in data set [13], 6.25 µg/mL in data set [14], 6.25 µg/mL in [15] and 12.5 µg/mL in the data set on Maltophilia 604.
Regarding `O=C(Cc1cccs1)N[C@@H]1C(=O)N2C(C(=O)[O-])=C(C[n+]3ccccc3)CS[C@H]12` [cephaloridine], the “control” value in data set [1] is “cannot be controlled”.
